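Results reflect a 48-hour exposure of cells in 96-well plates to compound at five concentrations. GI50 = concentration required for 50% inhibition of growth. TGI is the concentration that stops growth completely.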
Assays:
Test in all cases: inhibition of tumour cell growth, NCI panel, 48 h
NCI-H522 lung = test system: NCI-H522 lung
UACC-257 melanoma = test system: UACC-257 melanoma
RXF 393 renal = test system: RXF 393 renal
OVCAR-8 ovarian = test system: OVCAR-8 ovarian
RPMI-8226 leukemia = test system: RPMI-8226 leukemia
MALME-3M melanoma = test system: MALME-3M melanoma
SNB-75 CNS = test system: SNB-75 CNS
A549 NSCLC = test system: A549 NSCLC
A498 renal = test system: A498 renal
HCC-2998 colon = test system: HCC-2998 colon

Structure (SMILES)	TGI (NCI-H522 lung)	TGI (UACC-257 melanoma)	TGI (RXF 393 renal)	TGI (OVCAR-8 ovarian)	TGI (RPMI-8226 leukemia)	TGI (MALME-3M melanoma)	TGI (SNB-75 CNS)	TGI (A549 NSCLC)	TGI (A498 renal)	TGI (HCC-2998 colon)	GI50 (NCI-H522 lung)	GI50 (UACC-257 melanoma)	GI50 (RXF 393 renal)	GI50 (OVCAR-8 ovarian)	GI50 (RPMI-8226 leukemia)	GI50 (MALME-3M melanoma)	GI50 (SNB-75 CNS)	GI50 (A549 NSCLC)	GI50 (A498 renal)	GI50 (HCC-2998 colon)
COc1ccccc1NC(=O)CC(=O)NN	> 100 µM	> 100 µM	> 100 µM	> 100 µM	> 100 µM	> 100 µM	> 100 µM	> 100 µM	> 100 µM	> 100 µM	–	–	–	–	–	–	–	–	–	–
COc1ccccc1C1C(C#N)=C(N)Oc2n[nH]c(C)c21 (centres undefined)	> 100 µM	> 100 µM	> 100 µM	> 100 µM	29.6 µM	> 100 µM	> 100 µM	> 100 µM	> 100 µM	> 100 µM	56.3 µM	> 100 µM	> 100 µM	> 100 µM	10.5 µM	> 100 µM	> 100 µM	> 100 µM	> 100 µM	> 100 µM
Cc1c2ccncc2c(C)c2c1[nH]c1ccc(OCCN(C)C)cc12	1.16 µM	2.07 µM	0.906 µM	0.543 µM	0.135 µM	2.96 µM	1.31 µM	0.844 µM	2.77 µM	0.656 µM	–	–	–	–	–	–	–	–	–	–
Cc1c([C@H](C)[C@@H]2NC[C@@H](C)C[C@H]2O)ccc2c1C[C@H]1[C@H]2CC=C2C[C@@H](O)CC[C@@]21C	36.6 µM	27.8 µM	48.2 µM	> 100 µM	17.9 µM	36.5 µM	51.7 µM	47.9 µM	33.6 µM	30 µM	–	–	–	–	–	–	–	–	–	–
[N-]=[N+]=NCC(O)Cn1cnc2c(NC(=O)c3ccccc3)ncnc21 (centres undefined)	> 100 µM	> 100 µM	> 100 µM	> 100 µM	> 100 µM	> 100 µM	> 100 µM	> 100 µM	> 100 µM	> 100 µM	–	–	–	–	–	–	–	–	–	–
CC(CNC(N)=O)NC(N)=O (centres undefined)	> 100 µM	> 100 µM	> 100 µM	> 100 µM	> 100 µM	> 100 µM	> 100 µM	> 100 µM	> 100 µM	> 100 µM	–	–	–	–	–	–	–	–	–	–
CC1(C)C=C(/C=N/Nc2ccccc2)C(C#N)=C(O)C1(C#N)C#N	> 100 µM	> 100 µM	> 100 µM	> 100 µM	> 100 µM	> 100 µM	> 100 µM	> 100 µM	> 100 µM	> 100 µM	–	–	–	–	–	–	–	–	–	–
O=C(Nc1nn[nH]n1)c1nc(-c2ccccc2)cc(=O)[nH]1	> 100 µM	> 100 µM	> 100 µM	> 100 µM	> 100 µM	> 100 µM	> 100 µM	> 100 µM	> 100 µM	> 100 µM	–	–	–	–	–	–	–	–	–	–
CCOc1cc2c(cc1O)C(O)C[C@@H]1[C@@H]2CC[C@]2(C)[C@@H](O)CC[C@@H]12 (some centres undefined)	0.95 µM	> 100 µM	5.25 µM	> 50.4 µM	> 34 µM	> 100 µM	> 100 µM	> 100 µM	0.497 µM	30.4 µM	–	–	–	–	–	–	–	–	–	–
CC1(C)O[C@@H](C[C@]2(C#N)C[C@H](CCl)OC(C)(C)O2)C[C@@H](C#N)O1	> 100 µM	> 100 µM	> 100 µM	> 100 µM	> 100 µM	> 100 µM	> 100 µM	> 100 µM	> 100 µM	> 100 µM	–	–	–	–	–	–	–	–	–	–
OC(NN=C1CCCC1)(C(F)(F)Cl)C(F)(F)Cl	> 10 µM	> 10 µM	> 10 µM	> 10 µM	> 10 µM	> 10 µM	> 10 µM	> 10 µM	> 10 µM	> 10 µM	–	–	–	–	–	–	–	–	–	–
CCCCCCCCC#CCCCCCCCCCC[C@@H]1C(=O)O[C@H](C)[C@@H]1O (tested in a mixture with another compound)	18.8 µM	> 100 µM	28.4 µM	29.1 µM	39.9 µM	44 µM	52.4 µM	28.6 µM	> 100 µM	> 100 µM	–	–	–	–	–	–	–	–	–	–
O=C1C2C=CC(n3[nH]c(=O)n(Cc4ccccc4)c3=O)CC2C(=O)N1c1ccc(Br)cc1 (centres undefined)	> 100 µM	> 100 µM	> 100 µM	> 100 µM	> 100 µM	> 100 µM	> 100 µM	> 100 µM	> 100 µM	> 100 µM	–	–	–	–	–	–	–	–	–	–
Cc1ccc(S(=O)(=O)NC(=O)C2=C3SCCN3C(=O)N(S(=O)(=O)c3ccc(C)cc3)C2c2ccccc2)cc1 (centres undefined)	46.7 µM	> 100 µM	78.7 µM	> 100 µM	92.3 µM	> 100 µM	> 100 µM	> 100 µM	> 100 µM	48 µM	–	–	–	–	–	–	–	–	–	–
CC(=O)OCC1OC(n2c(C)c(C)c(C)c(C#N)c2=S)C(OC(C)=O)C(OC(C)=O)C1OC(C)=O (centres undefined)	69.1 µM	> 100 µM	57.6 µM	> 100 µM	–	> 100 µM	> 100 µM	> 100 µM	> 100 µM	> 100 µM	–	–	–	–	–	–	–	–	–	–
